Source: patent US20230302159A1, “COMPOUNDS AND COMPOSITIONS FOR TUMOR DETECTION AND SURGICAL GUIDANCE” (Cornell University, priority 2020, published 2023)

Experiments:
RFP-ovsaho tumors = test: In vivo imaging study, spray on about 2 mm subcutaneous RFP-ovsaho tumors (Example 1); design: species or system mice; conditions: for tumor contrast after spray: 2 μM sprayed, no washing
Description: In vivo imaging study. The animals inoculated with RFP-ovsaho cells in flank were used for the imaging study. To imitate the morphology of metastasized human ovarian cancer, the tumor size was controlled to 2 mm. The skin was removed prior to the spray of dye (2 μM, in saline). The tumor areas were sprayed and imaged using Cy7 filter set at different time points. RFP images were also acquired for tumor co-registration. The contrast ratio was calculated by [signal of tumor]/[signal of adjacent muscle]. Following the in vitro and cellular validation, we thought that the best candidate, CypH-11, which has excellent fluorescence property in different pH and in cells, could be an ideal agent to augment the detection of small cancerous lesions otherwise unnoticeable to surgeons. To verify the presumption, RFP positive ovsaho ovarian cancer cells were subcutaneously inoculated in mice. When tumors were about 2 mm in size, the skin was removed and the CypH-11 solution (2 μM in saline) was sprayed onto the tumor areas. […] The contrast continued to increase slightly and quickly reached plateau at ˜7 min. The tumor signal is about 150% higher than the adjacent muscle tissues, and the CypH-11 signal co-registered well with the RFP signal. […] In a separate set of experiment, animals were inoculated with two tumors. Each tumor was sprayed either with the prototype dye CypH-1 or CypH-11, and imaged simultaneously.

[1] = pKa measurement by fluorescence intensity in the pH range 2.0-11.0 (plate reader); type: physicochemical; conditions: for pKa: 2 μM in 20 mM phosphate-buffered solution, pH 2.0-11.0, λex=725 nm, λem=785 nm; for pH dependency of fluorescence: different pH solutions
Description: (A) The structure of CypH-1 (B) Schematic diagram of the fluorescence activation of CypH-11 by protonation. […] Their fluorescence intensity in the pH range (2.0-11.0) was measured (λex=725 nm and λem=785 nm) using a plate reader. (D) Fluorescence image of CypH-11 and CypH-1 in a 96-well plate at different pHs.
Spectroscopic analysis. Stock solutions (1 mM in DMSO) of CypH-11, CypH-1, and Cy7 were stored at a −30° C. freezer and used for the following experiments. For the pKa measurement, the respective compound was diluted in 20 mM phosphate-buffered solution (PBS, pH 2.0-11.0) to a final concentration of 2 μM. The fluorescence intensity (λex=725 nm and λcm=785 nm) was measured on a plate reader (Tecan Infinite M1000 Pro), and the fluorescence images were recorded with a fluorescence imaging system (Bruker In-vivo F Pro). For the quantum yield measurement, indocyanine green (ICG, Φ=1.2% in water) was used as the standard compound. The respective compound (0.4, 0.8, 1.2, 1.6, and 2.0 μM) in PBS solutions (pH=4.0 and pH=7.4) was measured using a Cary 60 UV-Vis spectrophotometer and Cary Eclipse fluorescence spectrophotometer (Agilent). The slope of fluorescence vs absorbance was compared with that of ICG to calculate the relative quantum yield.

OVASAHO cells = test: In vitro fluorescence microscopy and intracellular localization; type: cell-based; conditions: 2 μM, 1 hr; for Pearson value, overlap with the mitochondria tracker: co-staining with mitochondria tracker; for cellular fluorescence image in the presence of dye-containing medium (no washing): without washing
Description: Evaluation of CypH-11 in cancer cells. An ovarian cancer cell line, OVASAHO, was used to evaluate the performance of CypH-11, CypH-1, and Cy7. OVASAHO cells were incubated with the respective probe (2 μM) for 1 hr, and the cellular fluorescence images were captured in the presence of the dye-containing medium (FIG. 13A). […] This distinct difference is because of the pH sensitivity of CypH-11 and CypH-1. Both of them have low fluorescence in the cell culture medium (pH=7.4), but their fluorescence is turned on upon entering the cellular acidic compartments. […] After washing with a fresh culture medium, the cell images were captured again (FIG. 19). […] The intracellular distribution of dyes was investigated by co-staining with mitochondrial, lysosomal and nuclear trackers (FIG. 13B).
In vitro fluorescence microscopy. OVASAHO cells were used to compare the cellular performance and cellular distribution of CypH-11, CypH-1, and Cy7. OVASAHO cells (1.0×10^4) were seeded on a 96-well black plate (Corning, NY) and incubated in the supplemented medium for 24 hrs. Compounds (2 μM) were added and the cells were incubated for 1 hr. Before PBS washing, the cellular fluorescence images were captured with a fluorescence microscope (Cy7 filter, excitation: 690-730 nm and emission: 770-850 nm). After PBS washing (3×), the cellular images were captured again. For the co-localization experiment, OVASAHO cells (5.0×10^3) were incubated on a 96 well plate (ibiTreat, 180 μm coverslip, ibidi) with a clear and flat bottom. After treatment with CypH-11 (2 μM) or CypH-1 (2 μM) for 1 hr, the cells were washed with medium (3×). The cells were stained with Mitoview Green (Biotium, Parkway Fremont, CA) for 15 min or Lysoview 488 (Biotium) for 30 min. After washing with medium (3×), cells were further stained with DAPI (Invitrogen) for 10 min. The fluorescence images were captured using a fluorescence microscope (EVOS) after replacing the medium with a fresh cell culture medium. CypH-11 and CypH-1 images were obtained with a Cy7 filter, DAPI images with a DAPI filter (excitation: 352-402 nm and emission: 417-477 nm), Mitoview Green and Lysoview 488 images with a GFP filter (excitation: 457-487 nm and emission: 502-538 nm).

[2] = Solubility of the CypH dyes (Table 1); type: physicochemical; conditions: organic solvent or mixture; in EtOH; read-out: Solubility
Description: Characterization: All new CypH dyes were characterized by proton NMR and mass spectrometry to confirm identity. NMR data was consistent with the structure and mass spectrometry results gave the expected mass of the dye±0.5 amu. An HPLC method was developed (see below) and used to assess dye purity. […] Retention times on the column generally correlated with lipophilicity of the dyes with water soluble dyes containing sulfate groups eluting out earlier (@10.6 min for CypH-3, 6, 9) than CypH-1 (@11.9 min) and the more lipophilic dyes later. Optical properties of the dyes, acid dissociation constants and solubilities were also determined. Synthetic intermediates were also characterized by proton NMR.

| SMILES | time to contrast plateau (RFP-ovsaho tumors; 2 μM in saline, sprayed) [min] | tumor signal higher than the adjacent muscle tissues (RFP-ovsaho tumors; 2 μM in saline, sprayed) | time to fluorescent signal highlighting the tumor after spray (RFP-ovsaho tumors; 2 μM in saline, sprayed, about 2 mm tumors) | tumor contrast after spray (RFP-ovsaho tumors) | pKa [1] | normalized fluorescence relative to that of CypH-1 ([1]; at pH 6.0-6.5, in solution) | pH dependency of fluorescence [1] | cellular fluorescence after washing (OVASAHO cells) | Pearson value, overlap with the mitochondria tracker (OVASAHO cells) | cellular fluorescence image in the presence of dye-containing medium (no washing) (OVASAHO cells) | Solubility [2] [µM] |
| --- | --- | --- | --- | --- | --- | --- | --- | --- | --- | --- | --- |
| CC(C)N(C)c1ccc(OC2=C(/C=C/C3=[N+](C(C)C)c4ccccc4C3(C)C)CCC/C2=C\C=C2\N(C(C)C)c3ccccc3C2(C)C)cc1.[I-] [CypH-11] | ~7 | about 150% | within a minute | near instant signal enhancement | 6 | about 3.4 fold | low fluorescence in neutral and basic solutions, but strong fluorescence in acidic solutions | high fluorescence | 0.70 | Strong intracellular fluorescence and low medium fluorescence | > 1000 |
| CN(C)c1ccc(OC2=C(/C=C/C3=[N+](C)c4ccccc4C3(C)C)CCC/C2=C\C=C2\N(C)c3ccccc3C2(C)C)cc1.[Cl-] [CypH-1, reference compound] | – | – | – | minimally contrast | 4.7 | – | low fluorescence in neutral and basic solutions, but strong fluorescence in acidic solutions | high fluorescence | 0.90 | Strong intracellular fluorescence and low medium fluorescence | > 1000 |
